Values joined by “and” are separate entries in the source; they are usually repeats but may differ in a detail not shown here. Identical values can stand only once. “Also recorded” adds a separate entry of the source. Like-named read-outs stand apart in the source and are kept apart here.
Experiments:
PpPII = PpPII (Porphyra purpurea, UniProt P51254); experiment: ITC binding of small effector molecules to red algal PpPII
Experimental: (§1) To gain additional insights into the ligand binding properties of PpPII in comparison to cyanobacterial and chloroplastid PII proteins, isothermal titration calorimetry (ITC) experiments were performed using highly purified Strep-tagged or His-tagged recombinant PpPII, SyPII, CrPII, and PhyscoPII proteins (Supplementary Fig. S1) with different protein/ligand/ concentrations to determine the best fitting conditions of the binding model. The titration experiments were repeated with different protein preparations to confirm the reproducibility of the results. The raw isothermal data were fitted into one-binding site as well as three-sequential binding sites to define the best fitting model. Fitting using a one binding site model states an average Kd value for all available binding sites and the mean of the stoichiometry of bound ligands.
(§2) The ITC experiments were done using a VP-ITC microcalorimeter (MicroCal, LCC). All details for determination of binding constants for small effector molecules using ITC are fully described in the supplementary information. Heat isotherms of the dilution of the ligand in the cell buffer were collected in a blank run for each experiment in the absence of protein. The binding isotherms were calculated from received data and fitted to one-site and three-sequential binding sites models using the MicroCal ORIGIN software (Northampton) as described. All titrations were performed in duplicates with different purification batches of recombinant PII proteins. The association binding constant (Ka) was generated from the software by de-convolution and curve fitting. For calculation of dissociation constant (Kd), the Ka value was inversed.
(§3) Supplementary Information […]
(§4) Determination of Binding Constants for Small Effector Molecules using Isothermal […]
(§5) The binding of the small effector molecules to the recombinant PII proteins was tested using isothermal titration calarmity (ITC); VP-ITC microcalorimeter (MicroCal). All titrations were performed on 20°C using […] injection syringe with injection 6 µl or 10 µl of the tested ligands for 45 or 29 times, respectively into the cell (1.4 ml) with continuous stirring at 155 rpm. All tested ligands were high grade, prepared freshly in the same buffer of the protein and purchased from Sigma-Aldrich. Heat isotherms for the dilution of the ligand in the cell buffer were collected in a blank run in the absence of protein. The received calorimetric data were analyzed using MicroCal Origin software and fitted into one-site and three-sequential binding sites models, as indicated by the manufacture for calculation of binding isotherms9. For data reproducibility, the titrations were performed in duplicates with different purification batches of recombinant PII proteins. The association binding constant (Ka) was generated from the software by de-convolution and curve fitting. For calculation of dissociation constant (Kd), the Ka value was inversed.
For determination the binding isotherms of red algal PpPII protein, a buffer system composed of […]
used. For determination ATP and ADP binding isotherms upon the binding to PpPII protein, His- […]
against 2 mM ATP or 2 mM ADP. For determination of ATP and ADP binding isotherms in […]
concentration) was titrated against 0.5 mM of ATP or 1 mM ADP, respectively. However, for […]
of 1 mM of ATP or 1 mM ADP. […]

SyPII [1] = molecular target: T1, SyPII (Synechococcus elongatus, UniProt P0A3F4); experiment: ITC binding of small effector molecules to cyanobacterial SyPII; set-up: species or system Synechococcus elongatus PCC 7942
T1 construct: Strep-tag; made in house
T1 sequence (P0A3F4 whole entry): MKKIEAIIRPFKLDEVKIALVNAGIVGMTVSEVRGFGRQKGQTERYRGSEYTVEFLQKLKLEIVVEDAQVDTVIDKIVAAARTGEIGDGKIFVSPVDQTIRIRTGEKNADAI
Experimental: as §1, §2, §3, §4
as §5, with “inversed. […]” for “inversed.”
For determination the binding isotherms of cyanobacterial SyPII protein, a strep-tagged recombinant protein (20 µM trimeric concentration) was overexpressed and used as described previously9, 15, in a buffer composed of 10 mM Hepes-NaOH, 50 mM KCl, 50 mM NaCl, and 1

CrPII = experiment: ITC binding of small effector molecules to green algal CrPII; set-up: species or system Chlamydomonas reinhardtii
Experimental: as §1, §2, §3, §4
as §5, with “inversed. […]” for “inversed.”

PhyscoPII = experiment: ITC binding of small effector molecules to plant-moss PhyscoPII; set-up: species or system Physcomitrella patens
Experimental: as §1, §2, §3, §4, §5
5 mM MgCl2, 0.5 mM EDTA, and 10% glycerol (pH 7.6). […]
For determination the binding isotherms of plant-moss PhyscoPII protein, a strep-tagged recombinant protein (5 or 6 µM trimeric concentration) was used in system composed of 20 mM

SyPII [2] = molecular target: T1, SyPII; details: in presence ADP, given in parentheses for comparison; cited from earlier work
ScNAGK = molecular target: T2, ScNAGK (Synechocystis sp., UniProt P73326); experiment: Coupled NAGK activity assay, ScNAGK; format: biochemical, Synechocystis sp. PCC 6803
T2 sequence (P73326 1-297): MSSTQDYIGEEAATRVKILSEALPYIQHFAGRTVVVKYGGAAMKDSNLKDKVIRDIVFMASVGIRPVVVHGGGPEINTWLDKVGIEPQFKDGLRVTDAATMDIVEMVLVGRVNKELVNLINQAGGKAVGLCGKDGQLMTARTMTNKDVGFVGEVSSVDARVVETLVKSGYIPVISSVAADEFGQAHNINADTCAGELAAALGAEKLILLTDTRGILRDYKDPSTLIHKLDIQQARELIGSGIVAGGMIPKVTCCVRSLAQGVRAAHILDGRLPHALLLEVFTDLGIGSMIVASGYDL
Experimental: (§6) The assess the activity of ScNAGK was measured with an enzyme assay, in which the ADP production was coupled to the NADH oxidation by the auxiliary enzymes pyruvate kinase and lactate dehydrogenase according to previously described procedure[32],[50]. […] The oxidation reaction of NADH was recorded for 10 min using spectrophotometer (SPECORD 210 PLUS, Analytik Jena AG) at 340 nm. […] The NADH molar absorption coefficient is 6178 L mol^−1 cm^−1 for at 340 nm, which was used for calculation. […] From the velocity slopes, the enzymatic constants Km, Kcat and IC50 were calculated using the Graph-Pad Prism software (GraphPad Software, USA).

PpPII-ScNAGK complex = PpPII-ScNAGK complex (Porphyra purpurea, UniProt P51254); experiment: Coupled NAGK activity assay, ScNAGK with PpPII; format: biochemical, Synechocystis sp. PCC 6803; Porphyra purpurea; details: ScNAGK in the presence of PpPII, fixed 10 mM ATP
Chain of PpPII-ScNAGK complex (P51254 whole entry, one chain of several): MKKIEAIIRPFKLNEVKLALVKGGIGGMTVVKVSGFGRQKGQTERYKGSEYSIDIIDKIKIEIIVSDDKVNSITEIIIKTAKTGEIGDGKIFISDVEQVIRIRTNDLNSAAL
Experimental: as §6

PipX = experiment: Pull-down analysis of PipX binding to PII proteins; set-up: species or system Synechocystis sp. PCC 6803; details: 10 µM proteins, 1 mM ADP, Strep-Tactin column, Tricine-SDS-PAGE
From the text: In cyanobacteria, PipX is the second known receptor of PII signaling. We questioned whether red algal PII proteins have lost or retained the ability to bind to PipX. To test this possibility, we first analyzed complex formation using pull-down experiments (Supplementary Fig. S3A and B). The PII protein from Synechocystis sp. PCC 6803 (ScPII) was mixed with PipX in the presence of ADP and then the Strep-tagged PII was immobilized on the Strep-Tactin II column (Supplementary Fig. S3A). After extensive washes, the proteins were eluted with desthiobiotin and analyzed by Tricine-SDS-PAGE. Both proteins were detected in the elution. Thus, confirming previous studies[16]–[18], cyanobacterial PII was bound to PipX. When PpPII in the presence of PipX was immobilized on the column, no PipX signal was detected in the elution (Supplementary Fig. S3B).
For complex formation, the binding reactions were done in 300 μl of buffer (100 mM Tris HCl, pH 8.0, 150 mM NaCl, 1 mM EDTA) by adding 10 µM of purified proteins: His6-ScPipX and Strep-tag ScPII or Strep-tag PpPII. […] The eluted fractions were analyzed by Tricine-SDS PAGE[51] and stained with SimplyBlue™ SafeStain (Invitrogen).
Figure S3. […] Complex formation between PipX and ScPII (A) or PpPII (B) was assessed by pull-down. […] (C) Complex formation between PipX and PII proteins was assessed by SPR. […]

[3] = titrant alone, read-out: Average Kd (one-site binding model)
[4] = titrant alone, read-out: Kd1 (three-sites binding model)
[5] = titrant alone, read-out: Kd2 (three-sites binding model)
[6] = titrant alone, read-out: Kd3 (three-sites binding model)

Chain of PpPII (P51254 whole entry): as the sequence (P51254 whole entry, one chain of several) above

O=C(O)CCC(=O)C(=O)O [2-OG, 2-oxoglutarate]
N, number of calculated binding sites (one-site binding model) (PpPII; in presence ADP (1 mM)): No binding
N, number of calculated binding sites (one-site binding model) (PpPII; in presence ATP (1 mM)): 1.0
N, number of calculated binding sites (one-site binding model) (SyPII [1]; in presence ATP (2 mM)): 1.4
Average Kd (one-site binding model) (CrPII; in presence ADP (2 mM)): never observed binding; also recorded: No binding
Kd1 (three-sites binding model) (CrPII; in presence ADP (2 mM)): No binding
Kd2 (three-sites binding model) (CrPII; in presence ADP (2 mM)): No binding
Kd3 (three-sites binding model) (CrPII; in presence ADP (2 mM)): No binding
Kd (CrPII; in presence ATP (2 mM), read-out: Average Kd (one-site binding model)): 15 ± 5.4 µM
Kd (CrPII; in presence ATP (2 mM), read-out: Kd1 (three-sites binding model)): 4.2 ± 0.7 µM
Kd (CrPII; in presence ATP (2 mM), read-out: Kd2 (three-sites binding model)): 21.3 ± 11 µM
Kd (CrPII; in presence ATP (2 mM), read-out: Kd3 (three-sites binding model)): 45.5 ± 19.8 µM
Average Kd (one-site binding model) (PhyscoPII; in presence ATP (1 mM)): unable to detect any binding; also recorded: No binding
Kd1 (three-sites binding model) (PhyscoPII; in presence ATP (1 mM)): No binding
Kd2 (three-sites binding model) (PhyscoPII; in presence ATP (1 mM)): No binding
Kd3 (three-sites binding model) (PhyscoPII; in presence ATP (1 mM)): No binding
N, number of calculated binding sites (one-site binding model) (SyPII [2]): (No binding)

Nc1ncnc2c1ncn2[C@@H]1O[C@H](COP(=O)(O)OP(=O)(O)OP(=O)(O)O)[C@@H](O)[C@H]1O [ATP]
Kd (PpPII; Average Kd (one-site binding model), in presence 2-OG (1 mM)): 0.2 ± 0.3 µM
Kd (PpPII; Average Kd (one-site binding model), titrant alone): ~22 µM and 22 µM
Kd (PpPII; Kd1 (three-sites binding model), in presence 2-OG (1 mM)): 1.4 ± 1.8 µM
Kd (PpPII; Kd1 (three-sites binding model), titrant alone): 0.5 ± 0.2 µM
Kd (PpPII; Kd2 (three-sites binding model), in presence 2-OG (1 mM)): 1 ± 0.9 µM
Kd (PpPII; Kd3 (three-sites binding model), in presence 2-OG (1 mM)): 83.9 ± 62.4 µM
Kd (PpPII; Kd3 (three-sites binding model), titrant alone): 142 ± 80.8 µM
N, number of calculated binding sites (one-site binding model) (PpPII; in presence 2-OG (1 mM)): 1.0
Kd (PpPII; read-out: Kd2 (three-sites binding model), titrant alone): 18.7 ± 9.2 µM
N, number of calculated binding sites (one-site binding model) (PpPII; titrant alone, per PII trimer): 2.5
N, number of calculated binding sites (one-site binding model) (SyPII [1]; in presence 2-OG (1 mM)): 1.8
Kd (SyPII [1]; in presence 2-OG (1 mM), read-out: Average Kd (one-site binding model)): 2.7 ± 0.1 µM
Kd (SyPII [1]; in presence 2-OG (1 mM), read-out: Kd1 (three-sites binding model)): 0.5 ± 0.5 µM
Kd (SyPII [1]; in presence 2-OG (1 mM), read-out: Kd2 (three-sites binding model)): 3 ± 1.7 µM
Kd (SyPII [1]; in presence 2-OG (1 mM), read-out: Kd3 (three-sites binding model)): 325 ± 171 µM
N, number of calculated binding sites (one-site binding model) (SyPII [1]; titrant alone): 3.2
Kd (SyPII [1]; [3]): 43.3 ± 37.7 µM
Kd (SyPII [1]; [4]): 7.5 ± 7.3 µM
Kd (SyPII [1]; [5]): 15.9 ± 12.2 µM
Kd (SyPII [1]; [6]): 85.4 ± 74.6 µM
Kd (CrPII; in presence 2-OG (2 mM), read-out: Average Kd (one-site binding model)): 35.8 ± 1.6 µM
Kd (CrPII; in presence 2-OG (2 mM), read-out: Kd1 (three-sites binding model)): 5.8 ± 5.8 µM
Kd (CrPII; in presence 2-OG (2 mM), read-out: Kd2 (three-sites binding model)): 53.1 ± 58.3 µM
Kd (CrPII; in presence 2-OG (2 mM), read-out: Kd3 (three-sites binding model)): 61.6 ± 9.7 µM
Average Kd (one-site binding model) (CrPII; titrant alone): unable to notice any binding; also recorded: No binding
Kd1 (three-sites binding model) (CrPII; titrant alone): No binding
Kd2 (three-sites binding model) (CrPII; titrant alone): No binding
Kd3 (three-sites binding model) (CrPII; titrant alone): No binding
Kd (PhyscoPII; in presence 2-OG, read-out: Average Kd (one-site binding model)): 17.6 ± 7.5 µM
Kd (PhyscoPII; in presence 2-OG, read-out: Kd1 (three-sites binding model)): 8 ± 6 µM
Kd (PhyscoPII; in presence 2-OG, read-out: Kd2 (three-sites binding model)): 16.3 ± 11.4 µM
Kd (PhyscoPII; in presence 2-OG, read-out: Kd3 (three-sites binding model)): 129 ± 128 µM
Kd (PhyscoPII; [3]): 26.8 ± 10.5 µM
Kd (PhyscoPII; [4]): 5.7 ± 1.4 µM
Kd (PhyscoPII; [5]): 13.6 ± 7.2 µM
Kd (PhyscoPII; [6]): 48.2 ± 29.3 µM

CC(=O)N[C@@H](CCC(=O)O)C(=O)O [NAG, N-acetyl glutamate]
Kcat (ScNAGK; free ScNAGK, NAG variable substrate, fixed 10 mM ATP): 8.93 ± 1.40 s⁻¹
Km (ScNAGK; read-out: Km value for N-acetyl glutamate (NAG), free ScNAGK, fixed 10 mM ATP): 16.2 ± 2.14 mM
Kcat (PpPII-ScNAGK complex; NAG variable substrate): 10.02 ± 1.11 s⁻¹
Km (PpPII-ScNAGK complex; read-out: apparent Km for NAG): 4.25 ± 0.36 mM

N=C(N)NCCC[C@H](N)C(=O)O [arginine]
IC50 (ScNAGK; read-out: Feedback inhibition of ScNAGK, half maximal inhibitory concentration (IC50)): 6.2 µM

ScPII: PII protein from Synechocystis sp. PCC 6803, recombinant with C-terminal Strep-tag II
complex formation with PipX (pull-down) (PipX): bound to PipX

— publication PMC5768801, “The PII signaling protein from red algae represents an evolutionary link between cyanobacterial and Chloroplastida PII proteins” (Scientific Reports, 2018)
